Results published in patent publication US20090270419A1, “COMBINATIONS OF CLASS-I SPECIFIC HISTONE DEACETYLASE INHIBITORS WITH PROTEASOME INHIBITORS” (priority 2006, published 2009).

Assays:
[1] = tested on: acetylation of histone H3 and H4 and induction of p21waf1,cip1 in A2780 ovarian carcinoma cells; assay: Acetylation of cellular HDAC 1 substrates and induction of p21waf1,cip1 (Western blot); assay type: cell-based, human; details: 24 h, 0-3000 nM tested
Method: Total cell lysates were prepared and analysed by SDS-PAGE. Levels of acetylated H3 and H4 histones, total level of H3 proteins and levels p21^waf1, cip1 protein were detected using appropriate dilutions of rabbit polyclonal and mouse monoclonal antibodies, followed by enhanced chemoluminescence (ECL) detection. […] Antibodies were incubated for either 1-2 h at room temperature or overnight at 4° C. […] Protein-antibody complexes were then visualized by chemiluminescence (Pierce Chemical Co) or fluorescence (Odyssey) according to the manufacturer's instructions. The experiments were performed three times.

[2] = tested on: acetylation of tubulin and induction of Hsp 70 in A2780 ovarian carcinoma cells; assay: Acetylation of tubulin and induction of Hsp 70 (Western blot, HDAC 6 readout); assay type: cell-based, human; details: 24 h, 0-3000 nM tested
Method: Total cell lysates were prepared and analysed by SDS-PAGE. […] Hsp 70 protein was detected with an antibody from Stressgen (Cat. nr. SPA-810), followed by ECL detection. Appropriate dilutions of antibodies were incubated for either 1-2 h at room temperature or overnight at 4° C. In order to control for equal loading, blots were stripped and re-probed with mouse monoclonal anti-actin IgM (Ab-1, Oncogene Research Products). […] Protein-antibody complexes were then visualized by chemiluminescence (Pierce Chemical Co) or fluorescence (Odyssey) according to the manufacturer's instructions. The experiments were performed three times.

[3] = tested on: BV-173; details: BV-173, chronic B cell leukemia; 72 hr, MTS
Method: (§1) Tumor cells were grown as cell suspension in the corresponding appropriate culture medium at 37° C. in a humidified 5% CO2 incubator. Mycoplasma-free tumor cells were seeded in 96-well flat-bottom microtitration plates and incubated at 37° C. for 24 hr in culture medium containing 10% FCS. […] Cells were then incubated for an additional 72 hr.

[4] = tested on: Raji; details: Burkitt's lymphoma, 72 hr, MTS
Method: as §1

[5] = tested on: KCL-22; details: KCL-22, chronic myeloid leukemia; 72 hr, MTS
Method: as §1

[6] = tested on: U-937; details: U-937, lymphoma; 72 hr, MTS
Method: as §1

[7] = tested on: RPMI 8226; details: RPMI 8226, myeloma; 72 hr, MTS
Method: as §1

[8] = tested on: Namalwa; details: Burkitt's lymphoma, 72 hr, MTS
Method: as §1

[9] = tested on: Jurkat clone E6-1; details: Jurkat clone E6-1, acute lymphoblastic leukemia; 72 hr, MTS
Method: as §1

[10] = tested on: EHEB; details: chronic B cell leukemia, 72 hr, MTS
Method: as §1

[11] = tested on: KG-1; details: KG-1, acute myelogenous leukemia; 72 hr, MTS
Method: as §1

[12] = tested on: SUP-B15; details: SUP-B15, acute lymphoblastic leukemia; 72 hr, MTS
Method: as §1

[13] = tested on: Ramos; details: Burkitt's lymphoma, 72 hr, MTS
Method: as §1

[14] = tested on: Daudi; details: Burkitt's lymphoma, 72 hr, MTS
Method: as §1

[15] = tested on: ARH-77; details: ARH-77, myeloma; 72 hr, MTS
Method: as §1

[16] = tested on: K-562; details: K-562, chronic myeloid leukemia; 72 hr, MTS
Method: as §1

[17] = tested on: HL-60; details: HL-60, acute promyelocytic leukemia; 72 hr, MTS
Method: as §1

[18] = tested on: MOLT-4; details: MOLT-4, acute lymphoblastic leukemia; 72 hr, MTS
Method: as §1

[19] = tested on: OCI-AML2; details: OCI-AML2, acute myeloid leukemia; 72 hr, MTS
Method: as §1

[20] = tested on: CCRF-CEM; details: acute lymphoblastic leukemia, 72 hr, MTS
Method: as §1

[21] = tested on: THP-1; details: THP-1, acute monocytic leukemia; 72 hr, MTS
Method: as §1

[22] = tested on: LAMA-84; details: LAMA-84, chronic myeloid leukemia in blast crisis; 72 hr, MTS
Method: as §1

[23] = tested on: p21waf1,cip1 deficient cells as compared to the parental HCT-116 cells; details: p21waf1,cip1 deficient cells vs parental HCT-116 cells; cited from earlier work

**Q.** Which “concentration when induction of acetylation of histone H3 and H4 and induction of p21waf1,cip1 is observed” value [1] does the source give for `Cn1cc(CNCC2CCN(c3ncc(C(=O)NO)cn3)CC2)c2ccccc21` [JNJ 26481585] here?
**A.** Its value is 10 nM.

**Q.** And the “concentration when start of induction of acetylation of tubulin and induction of Hsp 70 is observed” value [2]?
**A.** Its value is 30 nM.

**Q.** For `O=C(NO)c1cnc(N2CCN(S(=O)(=O)c3ccc4ccccc4c3)CC2)nc1` [R306465], which “mean IC40 (concentration required to reach 40% inhibition of cell proliferation)” value [3] is on record?
**A.** The value was 26.33 nM.

**Q.** What about the “mean IC40 (concentration required to reach 40% inhibition of cell proliferation)” value [4] of the same compound?
**A.** The value was 221.09 nM.

**Q.** What about the “mean IC40 (concentration required to reach 40% inhibition of cell proliferation)” value [5] of the same compound?
**A.** Its value is 89.88 nM.

**Q.** What about the “mean IC40 (concentration required to reach 40% inhibition of cell proliferation)” value [6] of the same compound?
**A.** The value was 154.68 nM.

**Q.** What about the “mean IC40 (concentration required to reach 40% inhibition of cell proliferation)” value [7] of the same compound?
**A.** The value was 37.59 nM.

**Q.** What about the “mean IC40 (concentration required to reach 40% inhibition of cell proliferation)” value [8] of the same compound?
**A.** Its value is 49.25 nM.

**Q.** And the “mean IC40 (concentration required to reach 40% inhibition of cell proliferation)” value [9]?
**A.** The value was 56.19 nM.

**Q.** What about the “mean IC40 (concentration required to reach 40% inhibition of cell proliferation)” value [10] of the same compound?
**A.** The value was 486.62 nM.

**Q.** What about the “mean IC40 (concentration required to reach 40% inhibition of cell proliferation)” value [11] of the same compound?
**A.** Its value is 170.59 nM.

**Q.** What about the “mean IC40 (concentration required to reach 40% inhibition of cell proliferation)” value [12] of the same compound?
**A.** Its value is 15.67 nM.

**Q.** And the “concentration when induction of acetylation of histone H3 and H4 and induction of p21waf1,cip1 is observed” value [1]?
**A.** The value was 100 nM.

**Q.** What about the “mean IC40 (concentration required to reach 40% inhibition of cell proliferation)” value [13] of the same compound?
**A.** The value was 66.08 nM.

**Q.** What about the “mean IC40 (concentration required to reach 40% inhibition of cell proliferation)” value [14] of the same compound?
**A.** Its value is 454.11 nM.

**Q.** What about the “mean IC40 (concentration required to reach 40% inhibition of cell proliferation)” value [15] of the same compound?
**A.** Its value is 207.27 nM.

**Q.** And the “mean IC40 (concentration required to reach 40% inhibition of cell proliferation)” value [16]?
**A.** The value was 80.76 nM.

**Q.** What about the “mean IC40 (concentration required to reach 40% inhibition of cell proliferation)” value [17] of the same compound?
**A.** The value was 86.76 nM.

**Q.** What about the “concentration when start of induction of acetylation of tubulin and induction of Hsp 70 is observed” value [2] of the same compound?
**A.** The value was 1000 nM.

**Q.** And the “mean IC40 (concentration required to reach 40% inhibition of cell proliferation)” value [18]?
**A.** Its value is 155.83 nM.

**Q.** What about the “mean IC40 (concentration required to reach 40% inhibition of cell proliferation)” value [19] of the same compound?
**A.** Its value is 267.92 nM.

**Q.** What about the “mean IC40 (concentration required to reach 40% inhibition of cell proliferation)” value [20] of the same compound?
**A.** The value was 78.79 nM.

**Q.** And the “mean IC40 (concentration required to reach 40% inhibition of cell proliferation)” value [21]?
**A.** The value was 446.29 nM.

**Q.** And the “mean IC40 (concentration required to reach 40% inhibition of cell proliferation)” value [22]?
**A.** Its value is 165.89 nM.

**Q.** What does the source list for `O=C(CCCCCCC(=O)Nc1ccccc1)NO` [SAHA, suberoylanilide hydroxamic acid]?
**A.** concentration when induction of acetylation of histone H3 and H4 and induction of p21waf1,cip1 is observed [1]: 3000 nM; concentration when start of induction of acetylation of tubulin and induction of Hsp 70 is observed [2]: 100 nM

**Q.** For `CC(/C=C/C(=O)NO)=C\[C@@H](C)C(=O)c1ccc(N(C)C)cc1` [trichostatin A], which “increase in resistance to the HDAC inhibitor” value [23] is on record?
**A.** Its value is 6 fold.
